Results as given in US20180153830A1, “SELECTIVE INHIBITORS OF UNDIFFERENTIATED CELLS” (Yissum Research Development Company of the Hebrew …, priority 2012, published 2018).
Where a name gives a salt, the structure may show the parent alone. Peptide text beside a SMILES is read from it. * marks the point of attachment. Cbz = O=C(OCc1ccccc1)*; CH2F = FC*

Legend:
[1] = test system: human pluripotent stem cells (hPSCs); test: Pilot cytotoxicity screen with 50 commercially available compounds; type: cell-based; settings: within 24 hours
Protocol: (§1) The CellTiter-Glo® luminescent cell viability assay (Promega, Madison, Wis.) was implemented as a high-throughput screening (HTS) assay for a chemical library screen in a 384-well format. After the DMSO tolerance of the assay was assessed, and the optimal cell numbers were determined for each cell type, a pilot screen was performed with the following 50 commercially available compounds:
(§2) 3-acetamidophenol, 4-acetamidophenol, 6-methylcoumarin, acetaminophen, acetazolamide, actidione, amantadine hydrochloride, aminosalicylic acid, amodiaquine, amsacrine hydrochloride, aztreonam, caffeine, carboplatin, cefamandole sodium, cholic acid, ciprofloxacin, clozapine, coumarin, crotaline, diflunisal, dopamine, doxycycline, erythromycin, estradiol, famotidine, fenofibrate, fludrocortisone acetate, gentamicin, imipramine, isoniazid, isoproterenol, kanamycin, ketoconazole, L-thyroxine, mefenamic acid, nadolol, naibuphine hydrochloride hydrate, nizatidine, norepinephrine, phenobarbital, quinine hydrochloride, salicylate, sodium 2-mercapto-ethanesulfonate, sulfasalazine, sulindac, tetracycline, tetraethylthiarum disulfide, timolol maleate, valproic acid sodium, and WY-14643.
(§3) A pilot screen was then performed with 50 commercially-available compounds (as described in the Materials and Methods section hereinabove), which were randomly selected from a bank of known cytotoxic compounds. […]

[2] = test system: human embryonic stem cells; test: Oleic acid rescue assay; type: cell-based; settings: 20 μM PluriSIn (2 μM amsacrine); up to 100 μM BSA-OA
Protocol: Human embryonic stem cells were cultured without feeder cells in CELLSTAR® 24-well tissue culture plates (Greiner Bio-One) pre-coated with Matrigel™, using mTeSR1 defined medium. […] After 24 hours, the cells were subjected to microscopy imaging and to cell viability measurements.
In order to further investigate the effect of SCD activity on hPSC viability, the ability of exogenous supplementation of oleic acid (the direct product of SCD1) to rescue cells from PluriSIn-induced apoptosis was further studied, using procedures described in the Materials and Methods section. Cells were exposed to PluriSn #1 in the presence of increasing concentrations of BSA-conjugated oleic acid (BSA-OA).
For comparison, cells were exposed to 20 μM of PluriSIn #1, #2, #3 and #6 in the presence of 100 μM BSA-OA.

[3] = hPSC viability after SCD1 inhibitors with or without oleic acid; type: cell-based, human; settings: human, human pluripotent stem cells (hPSCs), 75 nM, read-out: decrease in viability of hPSCs
Protocol: (§4) In order to determine whether hPSC viability indeed depends on functional SCD1 activity, hPSCs were exposed to 75 nM of the specific SCD1 inhibitors A939572 and CAY-10566 for 48 hours. Some samples were supplemented with 100 μM oleic acid in order to evaluate the effect of exogenous supplementation of oleic acid (a product of SCD1 activity) on cell death.

hPSCs = test: as above; type: cell-based, human; settings: 75 nM inhibitor, 100 μM oleic acid, 48 hours
Protocol: as §4

[4] = test system: human embryonic stem cells; test: Pancaspase inhibitor effect on PluriSIn #1-induced cell death; type: cell-based; settings: 25 μM or 100 μM, 1 hour before 20 μM PluriSIn #1; 24 hours
Protocol: The effect of the pancaspase inhibitor Z-VAD-FMK on PluriSIn #1-induced cell death was also examined. Cells were treated with 25 μM or 100 μM of Z-VAD-FMK, and 1 hour later PluriSIn #1 (20 μM) was added to the medium. After 24 hours, the cultures were subjected to cell viability measurements, as described hereinabove.

[5] = Pilot cytotoxicity screen with 50 commercially available compounds; type: cell-based, human; settings: human; after 24 hours, at a concentration of 1-3 μM; read-out: decrease in cell viability
Protocol: as §1, §2, §3

[6] = test system: embryonic stem cells and differentiated cells (human fibroblasts); test: Cytotoxicity of ER stress inducer and protein synthesis inhibitor with or without oleic acid

COc1cc(NS(C)(=O)=O)ccc1Nc1c2ccccc2nc2ccccc12 [amsacrine hydrochloride, reference compound]
cell killing [1]: killed almost all cells | protection by BSA-conjugated oleic acid (BSA-OA) against cell death induced by the compound [2]: did not protect

Cc1nnc(-c2ccc(N3CCC(Oc4cc(F)ccc4Cl)CC3)nn2)o1 [CAY-10566, 3-[4-(2-chloro-5-fluorophenoxy)-1-piperidinyl]-6-(5-methyl-1,3,4-oxadiazol-2-yl)-pyridazine]
cytotoxicity at 48 h, 75 nM [3]: > 80% | rescue from SCD1 inhibitor-induced cell death by oleic acid (hPSCs): completely rescued

COC(=O)C[C@H](NC(=O)[C@H](C)NC(=O)[C@@H](NC(=O)OCc1ccccc1)C(C)C)C(=O)CF [Z-VAD-FMK] (Cbz-Val-Ala-Asp(OMe)-CH2F)
suppression of PluriSIn #1-induced cell death [4]: significant suppressed PluriSIn #1-induced cell death

C[C@@H]1C[C@@H]([C@H](O)CC2CC(=O)NC(=O)C2)C(=O)[C@@H](C)C1 [cycloheximide]
cytotoxicity at 24 h [5]: ~50% | protection by oleic acid against the compound's cytotoxicity ([6]; 100 μM oleic acid): does not protect | cytotoxicity towards embryonic stem cells and differentiated cells ([6]; 1 mM dithiothreitol or 10 μM cycloheximide, 48 hours): cytotoxic towards both embryonic stem cells and differentiated cells
